Measured values from patent US20080275058A1, “N-Substituted-1H-Quinoline-2,4-Diones, Preparation Method Thereof, And Pharmaceutical Composition Containing The Same” (KOREA RESEARCH INSTITUTE OF CHEMICAL TECHNOLOGY, priority 2005, published 2008).
Like-named read-outs stand apart in the source and are kept apart here.

Legend:
5-HT1a = target: T1, 5-HT1a (Homo sapiens, UniProt P08908); experiment: Radioligand binding, 5-HT1a ([3H]8-OH-DPAT); settings: Table 4; [3H]8-OH-DPAT 0.5 nM; read-out: Binding affinity, IC50 (nM) 5-HT1a
T1 construct: purchased Euroscreen/BioSignal Packard Inc
T1 sequence (P08908 1-422): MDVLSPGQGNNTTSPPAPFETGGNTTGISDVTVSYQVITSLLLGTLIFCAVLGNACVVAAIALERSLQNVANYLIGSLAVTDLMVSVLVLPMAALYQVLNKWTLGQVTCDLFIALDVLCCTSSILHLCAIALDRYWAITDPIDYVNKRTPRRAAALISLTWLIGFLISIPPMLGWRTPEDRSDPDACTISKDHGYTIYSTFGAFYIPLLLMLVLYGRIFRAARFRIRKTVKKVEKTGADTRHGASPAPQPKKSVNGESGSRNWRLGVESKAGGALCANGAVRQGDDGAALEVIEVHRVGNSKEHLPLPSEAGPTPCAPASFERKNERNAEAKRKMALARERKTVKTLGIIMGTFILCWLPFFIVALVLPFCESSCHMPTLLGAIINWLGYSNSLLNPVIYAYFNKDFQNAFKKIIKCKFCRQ
Procedure, shortened: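 Per manufacturer method: commercial membranes incubated with radioligand and test compound, bound label counted.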

5-HT7 = target: T2, 5-HT7 (Homo sapiens, UniProt P34969); experiment: Radioligand binding, 5-HT7 ([3H]LSD); settings: Table 4; [3H]LSD 3 nM; read-out: Binding affinity, IC50 (nM) 5-HT7
T2 construct: purchased Euroscreen/BioSignal Packard Inc
T2 sequence (P34969 whole entry): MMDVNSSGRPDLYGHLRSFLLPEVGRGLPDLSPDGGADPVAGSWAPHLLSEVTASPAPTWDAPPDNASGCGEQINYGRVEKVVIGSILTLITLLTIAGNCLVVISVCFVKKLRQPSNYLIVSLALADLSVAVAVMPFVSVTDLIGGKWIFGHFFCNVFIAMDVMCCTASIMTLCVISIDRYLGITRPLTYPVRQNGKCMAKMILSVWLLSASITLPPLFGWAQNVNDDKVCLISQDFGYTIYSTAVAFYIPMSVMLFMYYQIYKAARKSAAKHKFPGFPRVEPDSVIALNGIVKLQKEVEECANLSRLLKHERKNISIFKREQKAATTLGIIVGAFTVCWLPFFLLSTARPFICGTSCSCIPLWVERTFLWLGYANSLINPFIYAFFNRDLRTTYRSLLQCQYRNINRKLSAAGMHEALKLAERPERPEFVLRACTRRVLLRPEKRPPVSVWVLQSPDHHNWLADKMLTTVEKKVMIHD

hD4.2 receptor = target: T3, hD4.2 receptor (Homo sapiens, UniProt P21917, DEL265-296); experiment: Radioligand binding, dopamine D4 ([3H]YM-09151-2); settings: Table 4; [3H]YM-09151-2 0.06 nM; read-out: Binding affinity, IC50 (nM) D4
T3 construct: purchased BioSignal Packard Inc., Montreal, Canada
T3 sequence (P21917 with tags, fused parts or gaps DEL265-296): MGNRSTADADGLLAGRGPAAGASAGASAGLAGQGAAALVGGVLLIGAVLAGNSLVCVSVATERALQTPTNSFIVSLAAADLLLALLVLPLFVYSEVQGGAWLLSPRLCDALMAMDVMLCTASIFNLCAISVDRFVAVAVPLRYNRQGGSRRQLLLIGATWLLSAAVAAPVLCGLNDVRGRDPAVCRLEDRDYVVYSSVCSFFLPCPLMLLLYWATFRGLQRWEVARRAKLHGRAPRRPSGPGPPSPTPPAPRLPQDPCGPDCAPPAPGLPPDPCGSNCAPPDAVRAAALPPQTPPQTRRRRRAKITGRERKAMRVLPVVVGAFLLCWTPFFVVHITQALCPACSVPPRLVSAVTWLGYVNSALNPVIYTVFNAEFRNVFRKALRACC
Procedure, shortened: (§1)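 IC50 values come from nonlinear fits of three displacement experiments, each using 7-8 test concentrations in duplicate. D2L and D3 membranes were labelled with 1 nM [3H]spiperone, and D4.2 with 0.06 nM [3H]YM-09151-2. All assays used pH 7.4 Tris buffers, with the D3 buffer adding 120 mM NaCl, KCl and CaCl2.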

mice = experiment: Rotarod deficit in mice; assay type: in vivo, mouse
Procedure, shortened: (§2)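 Compounds suspended in 3% Tween 80 were given p.o. to mice 60 min before testing. Rotarod deficit (%) was the proportion of animals falling within 1 min from a 1 inch knurled rod turning at 6 rpm, scored at 60, 90 and 120 min after dosing.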

Rotarod deficit in mice = assay type: in vivo, mouse; settings: mouse, in vivo, po, unit printed as image, read-out: TD50 (median neurotoxic dose)
Procedure, shortened: as §2

D1 = D1 (Homo sapiens, UniProt P21728); experiment: Radioligand binding, dopamine D1; settings: Table 4; read-out: Binding affinity, IC50 (nM) D1
Sequence of D1 (P21728 whole entry): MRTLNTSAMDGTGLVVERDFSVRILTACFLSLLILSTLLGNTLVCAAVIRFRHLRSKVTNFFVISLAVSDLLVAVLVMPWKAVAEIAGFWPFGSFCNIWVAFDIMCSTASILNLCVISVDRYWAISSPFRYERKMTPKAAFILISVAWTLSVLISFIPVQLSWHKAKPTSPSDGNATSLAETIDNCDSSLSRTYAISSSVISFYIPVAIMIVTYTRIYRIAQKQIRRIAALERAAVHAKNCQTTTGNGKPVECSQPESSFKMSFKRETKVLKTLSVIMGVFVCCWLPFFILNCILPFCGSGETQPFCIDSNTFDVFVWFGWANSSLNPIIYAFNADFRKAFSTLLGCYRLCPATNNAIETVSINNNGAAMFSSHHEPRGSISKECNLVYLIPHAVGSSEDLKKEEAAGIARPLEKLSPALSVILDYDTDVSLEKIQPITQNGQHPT

hD2L = target: T4, hD2L (Homo sapiens, UniProt P14416); experiment: Radioligand binding, dopamine D2 ([3H]spiperone); settings: Table 4; [3H]spiperone 1 nM; read-out: Binding affinity, IC50 (nM) D2
T4 construct: purchased BioSignal Packard Inc., Montreal, Canada
T4 sequence (P14416 whole entry): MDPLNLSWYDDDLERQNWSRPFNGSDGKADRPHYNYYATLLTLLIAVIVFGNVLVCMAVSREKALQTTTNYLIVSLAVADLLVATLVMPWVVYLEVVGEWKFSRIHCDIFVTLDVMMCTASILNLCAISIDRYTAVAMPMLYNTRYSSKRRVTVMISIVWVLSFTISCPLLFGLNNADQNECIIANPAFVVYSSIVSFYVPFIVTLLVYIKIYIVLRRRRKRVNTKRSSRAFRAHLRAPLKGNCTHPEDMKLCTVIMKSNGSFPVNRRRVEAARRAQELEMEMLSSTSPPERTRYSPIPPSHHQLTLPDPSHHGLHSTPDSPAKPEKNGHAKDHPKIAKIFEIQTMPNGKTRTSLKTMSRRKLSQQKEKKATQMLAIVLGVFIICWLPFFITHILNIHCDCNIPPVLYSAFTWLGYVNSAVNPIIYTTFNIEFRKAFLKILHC
Procedure, shortened: as §1

[1] = target: T5, Human serotonin 5-HT6 receptor (Homo sapiens, UniProt P50406); experiment: [3H]LSD binding assay on cloned 5-HT6 receptor membranes; settings: for binding affinity at 5-HT6 receptor labeled by [3H]LSD, in words: comment on Table 2
T5 construct: made in house; host or cells: insect Sf21 cells (baculovirus vector BacPAK8)
T5 sequence (P50406 whole entry): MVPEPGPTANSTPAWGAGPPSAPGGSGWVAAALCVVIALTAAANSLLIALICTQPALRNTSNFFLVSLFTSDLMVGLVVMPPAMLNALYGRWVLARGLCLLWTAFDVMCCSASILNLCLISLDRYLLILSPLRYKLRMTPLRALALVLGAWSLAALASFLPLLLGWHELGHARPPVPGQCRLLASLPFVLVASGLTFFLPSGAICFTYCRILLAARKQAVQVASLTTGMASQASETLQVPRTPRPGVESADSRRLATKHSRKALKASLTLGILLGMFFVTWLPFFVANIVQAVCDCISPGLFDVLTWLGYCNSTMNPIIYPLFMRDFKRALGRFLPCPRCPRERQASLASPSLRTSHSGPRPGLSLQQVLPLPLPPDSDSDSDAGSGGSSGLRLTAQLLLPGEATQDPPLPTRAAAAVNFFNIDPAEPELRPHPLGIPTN

5-HT2a = target: T6, 5-HT2a (Homo sapiens, UniProt P28223); experiment: Radioligand binding, 5-HT2a ([3H]Ketanserin); settings: Table 4; [3H]Ketanserin 1 nM; read-out: Binding affinity, IC50 (nM) 5-HT2a
T6 construct: purchased Euroscreen/BioSignal Packard Inc
T6 sequence (P28223 whole entry): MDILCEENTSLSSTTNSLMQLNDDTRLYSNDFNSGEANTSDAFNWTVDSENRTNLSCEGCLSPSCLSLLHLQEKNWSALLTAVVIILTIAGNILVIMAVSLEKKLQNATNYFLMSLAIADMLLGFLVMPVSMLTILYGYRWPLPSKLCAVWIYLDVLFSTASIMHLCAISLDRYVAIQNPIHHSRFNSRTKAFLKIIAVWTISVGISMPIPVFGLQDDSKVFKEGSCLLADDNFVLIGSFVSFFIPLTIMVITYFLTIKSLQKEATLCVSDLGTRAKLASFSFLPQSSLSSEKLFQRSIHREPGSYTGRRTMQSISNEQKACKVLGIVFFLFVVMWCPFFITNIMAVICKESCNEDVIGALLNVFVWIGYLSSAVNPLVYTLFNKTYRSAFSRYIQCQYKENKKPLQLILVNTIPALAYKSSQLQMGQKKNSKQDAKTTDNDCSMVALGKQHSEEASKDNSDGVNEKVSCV

hD3 = target: T7, hD3 (Homo sapiens, UniProt P35462); experiment: Radioligand binding, dopamine D3 ([3H]spiperone); settings: Table 4; [3H]spiperone 1 nM; read-out: Binding affinity, IC50 (nM) D3
T7 construct: purchased BioSignal Packard Inc., Montreal, Canada
T7 sequence (P35462 whole entry): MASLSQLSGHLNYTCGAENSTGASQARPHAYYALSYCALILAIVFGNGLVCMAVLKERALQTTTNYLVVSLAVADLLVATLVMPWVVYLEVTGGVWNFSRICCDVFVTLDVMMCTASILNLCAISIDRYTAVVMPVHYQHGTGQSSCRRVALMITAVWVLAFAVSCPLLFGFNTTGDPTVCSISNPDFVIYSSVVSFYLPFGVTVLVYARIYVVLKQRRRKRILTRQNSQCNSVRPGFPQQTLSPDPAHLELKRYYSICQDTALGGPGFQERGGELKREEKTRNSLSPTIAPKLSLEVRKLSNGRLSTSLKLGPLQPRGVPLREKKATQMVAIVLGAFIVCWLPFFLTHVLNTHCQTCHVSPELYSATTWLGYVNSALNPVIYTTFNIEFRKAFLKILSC
Procedure, shortened: as §1

5-HT6 receptors = 5-HT6 receptors (Homo sapiens, UniProt P50406); experiment: Adenylyl cyclase activity (cAMP accumulation) in HeLa cells transfected with human 5-HT6 receptor; assay type: cell-based; settings: for increase in cAMP level inhibited (FIG. 1): 5-HT-induced cAMP increase
Sequence of 5-HT6 receptors (P50406 whole entry): as the sequence (P50406 whole entry) above

[2] = Table 2, 1.87 nM [3H]LSD, 37 C, 60 min, read-out: IC50 (nM), binding affinity to the 5-HT6 receptor
[3] = Table 4, read-out: Binding affinity, IC50 (nM) 5-HT6
[4] = HeLa, read-out: inhibition of 0.3 μM serotonin (5-HT)-induced increase in cAMP levels

Structure (SMILES)	IC50 (5-HT1a) [nM]	IC50 (5-HT7) [nM]	IC50 (hD4.2 receptor) [nM]	melting point [°C]	Rotarod deficit (%) (mice; 200 p.o. (dose unit not given))	Rotarod deficit (%) (mice; 300 p.o. (dose unit not given))	Rotarod deficit (%) (mice; 400 p.o. (dose unit not given))	TD50 at 120 min (Rotarod deficit in mice) [mg/kg]	IC50 (D1) [nM]	IC50 (hD2L) [nM]	IC50 [1, 2] [nM]	IC50 [1, 3] [nM]	binding affinity at 5-HT6 receptor labeled by [3H]LSD, in words [1]	IC50 (5-HT2a) [nM]	IC50 (hD3) [nM]	increase in cAMP level inhibited (FIG. 1) (5-HT6 receptors)	other results
COc1ccc(C2(C)C(=O)c3c(N4CCNCC4)cc(Cl)cc3N(Cc3ccccc3)C2=O)cc1 (racemic) [Example 13, 1-Benzyl-7-chloro-3-(4-methoxy-phenyl)-3-methyl-5-piperazin-1-yl-1H-quinoline-2,4-dione]	1360	9000	> 10000	120 to 123	0	0	0	> 400	3590	> 10000	0.9	0.9	significant affinities	543	345	inhibited	
CC1(c2ccc(O)cc2)C(=O)c2c(N3CCNCC3)cc(Cl)cc2N(Cc2ccccc2)C1=O (racemic) [Example 14, 1-Benzyl-7-chloro-3-(4-hydroxy-phenyl)-3-methyl-5-piperazin-1-yl-1H-quinoline-2,4-dione]	> 10000	3570	> 10000	197 to 200	0	0	0	> 400	6820	> 10000	1	1	significant affinities	2140	1500	inhibited	IC50 (5-HT6 receptors): 28.7 nM; inhibition at 0.001 µM (5-HT6 receptors; [4]): 10%; inhibition at 0.01 µM (5-HT6 receptors; [4]): 22%; inhibition at 0.1 µM (5-HT6 receptors; [4]): 81%; inhibition at 1 µM (5-HT6 receptors; [4]): 100%; inhibition at 10 µM (5-HT6 receptors; [4]): 100%
